Experimental findings from ChEMBL document CHEMBL4627380, “Phaeosphaones: Tyrosinase Inhibitory Thiodiketopiperazines from an Endophytic Phaeosphaeria fuckelii” (J Nat Prod, 2020) are described below.

Calls of active or inactive are those of the source. No cut-off for these calls is given here.

The species entered for test [1] is Homo sapiens. Kind of test: Inhibition of alpha-glucosidase (unknown origin) at 100 uM.
The target of test [2] is Mushroom tyrosinase (Agaricus bisporus, UniProt O42713+Q00024+C7FF04+C7FF05). Kind of test: Inhibition of mushroom tyrosinase using L-Dopa as substrate preincubated for 10 mins followed by substrate addition and measured after 5 mins.

With `CC(C)[C@]12SS[C@]([C@@H](O)c3c[nH]c4ccccc34)(CC1=O)C(=O)N2C`, the inhibition result in test [1] is “inactive”.

Take `CC(C)[C@@H]1NC(=O)[C@@H]2C[C@@]3(O)c4ccccc4N[C@H]3N2C1=O`: in test [1], the inhibition result is “inactive”.

In the case of `CS[C@H](c1c[nH]c2ccccc12)[C@]1(O)NC(=O)[C@@](SC)(C(C)C)N(C)C1=O`, the inhibition entry in test [1] was “inactive”.

In test [2], `CS[C@]1(Cc2c[nH]c3ccccc23)NC(=O)[C@](CO)(SC)N(C)C1=O` [CHETOSEMINUDIN B] displayed an IC50 of 31.7 µM. For the same molecule, the inhibition result in test [1] was “inactive”.

`CO[C@]1([C@H](SC)c2c[nH]c3ccccc23)NC(=O)[C@@](SC)(C(C)C)N(C)C1=O`: the inhibition result in test [1] is “inactive”.

Regarding `CO[C@@]1([C@H](SC)c2c[nH]c3ccccc23)NC(=O)[C@@](SC)(C(C)C)N(C)C1=O`, the 50% inhibitory concentration (IC50) in test [2] was determined as 33.2 µM. Further, the inhibition entry in test [1] was “inactive”.

Take `CS[C@]1(Cc2c[nH]c3ccccc23)NC(=O)[C@@](SC)(C(C)C)NC1=O`: in test [1], the inhibition entry was “inactive”.

As for `CC(C)[C@@]12SS[C@]3(C(=O)N1C)[C@@H](O)[C@]1(c4c[nH]c5ccccc45)c4ccccc4N[C@@H]1N3C2=O`, the half-inhibitory concentration (IC50) in test [2] was found to be 28.4 µM. Moreover, in test [1], the inhibition entry was “inactive”.

In general, IC50 refers to the concentration needed to halve the response being measured. Higher therefore signals weaker potency.
